The record followed here is ChEMBL document CHEMBL5338818, “Discovery of the First Potent, Selective, and In Vivo Efficacious Polo-like Kinase 4 Proteolysis Targeting Chimera Degrader for the Treatment of TRIM37-Amplified Breast Cancer” (J Med Chem, 2023).

Calls of active or inactive are those of the source. The calls are words filed in the database; no cut-off is given here.

T1 sequence (Q96SW2 whole entry, looked up, one chain of several): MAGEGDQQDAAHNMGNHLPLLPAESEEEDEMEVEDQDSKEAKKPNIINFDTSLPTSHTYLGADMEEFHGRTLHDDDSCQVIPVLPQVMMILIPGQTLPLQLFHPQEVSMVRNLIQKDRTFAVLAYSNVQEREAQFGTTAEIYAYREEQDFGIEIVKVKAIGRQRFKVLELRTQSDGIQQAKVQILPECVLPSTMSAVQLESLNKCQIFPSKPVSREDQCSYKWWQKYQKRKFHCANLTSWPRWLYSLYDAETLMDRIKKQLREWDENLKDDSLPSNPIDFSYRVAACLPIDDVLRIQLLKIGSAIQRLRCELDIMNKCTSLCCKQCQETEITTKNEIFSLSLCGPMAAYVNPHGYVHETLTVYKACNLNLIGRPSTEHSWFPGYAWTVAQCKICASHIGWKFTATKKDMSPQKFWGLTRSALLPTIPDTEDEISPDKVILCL

The first data set has as its target T1, Protein cereblon/Serine/threonine-protein kinase PLK4 (Homo sapiens, UniProt O00444+Q96SW2). Briefly: Protac activity at CRBN/PLK4 in human MCF7 cells at 0.1 uM incubated for 48 hrs by Western blot analysis. Type of data set: cell-based.
Settings: not given
For orientation: In western blotting, separated proteins are transferred to a membrane and probed.
As for `Cc1cc(Nc2nc(NCc3ccc(F)cc3F)nc3c2cnn3C2CCN(CC3CCN(c4ccc5c(c4)C(=O)N(C4CCC(=O)NC4=O)C5=O)CC3)CC2)n[nH]1` (centres undefined), the Activity was determined as 2.16%.
The same measure, in the same setting: then `Cc1cc(Nc2nc(NCc3ccc(F)cc3F)nc3c2cnn3C2CCN(CC3CCN(c4ccc5c(c4)C(=O)N(C4CCC(=O)NC4=O)C5=O)C3)CC2)n[nH]1` (centres undefined), with 3.54%; and `Cc1cc(Nc2nc(NCc3ccc(F)cc3F)nc3c2cnn3C2CCN(C(=O)C3CN(c4ccc5c(c4)C(=O)N(C4CCC(=O)NC4=O)C5=O)C3)CC2)n[nH]1` (centres undefined), with 46.3%.
On the same count and under the same terms, then `Cc1cc(Nc2nc(NCc3ccc(F)cc3F)nc3c2cnn3C2CCN(C(=O)CCOCCOCCCOc3ccc4c(c3)C(=O)N(C3CCC(=O)NC3=O)C4=O)CC2)n[nH]1` (centres undefined), with 29.1%; and `Cc1cc(Nc2nc(NCc3ccc(F)cc3F)nc3c2cnn3C2CCN(C(=O)CCOCCOc3ccc4c(c3)C(=O)N(C3CCC(=O)NC3=O)C4=O)CC2)n[nH]1` (centres undefined), with 5.68%.
Turning to `Cc1cc(Nc2nc(NCc3ccc(F)cc3F)nc3c2cnn3C2CCN(C(=O)COCCOc3ccc4c(c3)C(=O)N(C3CCC(=O)NC3=O)C4=O)CC2)n[nH]1` (centres undefined), the Activity is 2.13%.

The target of a further data set is T2, Serine/threonine-protein kinase PLK4 (Homo sapiens, UniProt O00444).
T2 sequence (O00444 whole entry): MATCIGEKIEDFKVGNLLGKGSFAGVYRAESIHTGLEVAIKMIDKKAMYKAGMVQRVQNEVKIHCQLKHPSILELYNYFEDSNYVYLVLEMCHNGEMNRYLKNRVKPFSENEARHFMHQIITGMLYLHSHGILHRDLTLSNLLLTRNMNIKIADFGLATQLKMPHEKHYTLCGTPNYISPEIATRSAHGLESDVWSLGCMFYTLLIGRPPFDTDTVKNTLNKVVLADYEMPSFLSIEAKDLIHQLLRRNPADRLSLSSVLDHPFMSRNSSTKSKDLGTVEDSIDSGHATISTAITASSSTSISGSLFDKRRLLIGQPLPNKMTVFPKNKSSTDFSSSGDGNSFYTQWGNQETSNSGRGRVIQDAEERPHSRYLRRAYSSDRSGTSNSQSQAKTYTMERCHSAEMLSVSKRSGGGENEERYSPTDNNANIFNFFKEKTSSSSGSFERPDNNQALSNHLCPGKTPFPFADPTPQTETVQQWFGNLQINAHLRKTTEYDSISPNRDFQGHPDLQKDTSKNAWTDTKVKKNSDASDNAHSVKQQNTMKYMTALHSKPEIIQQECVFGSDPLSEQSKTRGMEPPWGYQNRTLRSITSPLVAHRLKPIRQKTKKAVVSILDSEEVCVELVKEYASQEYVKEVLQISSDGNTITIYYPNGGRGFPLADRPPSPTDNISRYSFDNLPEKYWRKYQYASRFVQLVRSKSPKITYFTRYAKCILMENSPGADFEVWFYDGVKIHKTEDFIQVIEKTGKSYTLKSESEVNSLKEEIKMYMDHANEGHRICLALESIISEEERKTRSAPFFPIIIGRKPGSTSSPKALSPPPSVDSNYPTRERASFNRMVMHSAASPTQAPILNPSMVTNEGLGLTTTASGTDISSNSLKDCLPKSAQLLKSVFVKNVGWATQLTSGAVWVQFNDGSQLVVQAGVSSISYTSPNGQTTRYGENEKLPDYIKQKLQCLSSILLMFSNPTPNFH
Description: Inhibition of PLK4 (unknown origin) incubated for 1 hr in presence of kinase tracer 236 by FRET assay.
Settings: not given
Usually IC50 stands for the midpoint of a concentration-inhibition curve. With `Cc1cc(Nc2nc(NCc3ccc(F)cc3F)nc3c2cnn3C2CCN(CC3CCN(c4ccc5c(c4)C(=O)N(C4CCC(=O)NC4=O)C5=O)CC3)CC2)n[nH]1` (centres undefined), the half-inhibitory concentration (IC50) is 3.1 nM.
Still for that read-out and setting: the same measure for `Cc1cc(Nc2nc(NCc3ccc(F)cc3F)nc3c2cnn3C2CCN(CC3CCN(c4ccc5c(c4)C(=O)N(C4CCC(=O)NC4=O)C5=O)C3)CC2)n[nH]1` (centres undefined): 13.6 nM; for `Cc1cc(Nc2nc(NCc3ccc(F)cc3F)nc3c2cnn3C2CCN(C(=O)C3CN(c4ccc5c(c4)C(=O)N(C4CCC(=O)NC4=O)C5=O)C3)CC2)n[nH]1` (centres undefined): 18.9 nM.
On the same count and under the same terms, the same measure for `Cc1cc(Nc2nc(NCc3ccc(F)cc3F)nc3c2cnn3C2CCN(C(=O)CCOCCOCCCOc3ccc4c(c3)C(=O)N(C3CCC(=O)NC3=O)C4=O)CC2)n[nH]1` (centres undefined): 37.9 nM; for `Cc1cc(Nc2nc(NCc3ccc(F)cc3F)nc3c2cnn3C2CCN(C(=O)CCOCCOc3ccc4c(c3)C(=O)N(C3CCC(=O)NC3=O)C4=O)CC2)n[nH]1` (centres undefined): 3.6 nM.
Same read-out and setting: the same measure for `Cc1cc(Nc2nc(NCc3ccc(F)cc3F)nc3c2cnn3C2CCN(C(=O)COCCOc3ccc4c(c3)C(=O)N(C3CCC(=O)NC3=O)C4=O)CC2)n[nH]1` (centres undefined): 1.9 nM.

Another data set addresses T1, Protein cereblon/Serine/threonine-protein kinase PLK4. Description: Protac activity at CRBN/PLK4 in human MCF7 cells at 1 uM incubated for 48 hrs by Western blot analysis. Type of data set: cell-based.
Settings: not given
`Cc1cc(Nc2nc(NCc3ccc(F)cc3F)nc3c2cnn3C2CCN(CC3CCN(c4ccc5c(c4)C(=O)N(C4CCC(=O)NC4=O)C5=O)CC3)CC2)n[nH]1` (centres undefined) came in with an Activity of 8.64%.
In turn, `Cc1cc(Nc2nc(NCc3ccc(F)cc3F)nc3c2cnn3C2CCN(CC3CCN(c4ccc5c(c4)C(=O)N(C4CCC(=O)NC4=O)C5=O)C3)CC2)n[nH]1` (centres undefined) came in with an Activity of 8.91%.
`Cc1cc(Nc2nc(NCc3ccc(F)cc3F)nc3c2cnn3C2CCN(C(=O)C3CN(c4ccc5c(c4)C(=O)N(C4CCC(=O)NC4=O)C5=O)C3)CC2)n[nH]1` (centres undefined) showed an Activity of 52.2%.
Still for that read-out and setting: the same measure for `Cc1cc(Nc2nc(NCc3ccc(F)cc3F)nc3c2cnn3C2CCN(C(=O)CCOCCOCCCOc3ccc4c(c3)C(=O)N(C3CCC(=O)NC3=O)C4=O)CC2)n[nH]1` (centres undefined): 46.4%; for `Cc1cc(Nc2nc(NCc3ccc(F)cc3F)nc3c2cnn3C2CCN(C(=O)CCOCCOc3ccc4c(c3)C(=O)N(C3CCC(=O)NC3=O)C4=O)CC2)n[nH]1` (centres undefined): 13.4%; for `Cc1cc(Nc2nc(NCc3ccc(F)cc3F)nc3c2cnn3C2CCN(C(=O)COCCOc3ccc4c(c3)C(=O)N(C3CCC(=O)NC3=O)C4=O)CC2)n[nH]1` (centres undefined): 5.34%.

Test system in a further data set: not listed separately
Description: Stability in human plasma assessed as half life at 100 uM after 120 mins by LC-MS/MS analysis. It counts as ADME, cell-free.
Settings: not given
The half-life is the time in which the quantity being followed falls by half. As to `CC(C)[N+](C)(CCOC(=O)C1c2ccccc2Oc2ccccc21)C(C)C.[Br-]` [PROPANTHELINE BROMIDE], the half-life at 100 µM turned out to be 19.8 min.

A further data set has as its system CYP2D6. Briefly: Inhibition of CYP2D6 in human liver microsomes at 10 uM using quinidine as substrate preincubated for 10 mins followed by NADPH regenerating system addition and measured after 15 mins by LC-MS/MS analysis relative to control. Type of data set: ADME, Microsome. To be noted: time 25 min. A general note: Microsomes from liver hold many membrane-bound enzymes, among them those of drug oxidation.
A word on the inhibition: it is the change of the read-out against control, counted positive when it falls. The low end stands for little suppression, the high end for strong suppression. With `C=C[C@H]1C[N@@]2CC[C@H]1C[C@@H]2[C@@H](O)c1ccnc2ccc(OC)cc12` [QUINIDINE], the inhibition at 0.25 h, 10 µM turned out to be 95.9%.

A further data set relates to MCF7. Description: Antiproliferative activity against human MCF7 cells incubated for 5 days by CCK-8 assay. The conditions noted are these: MCF7, 120 h. (Tetrazolium assays rely on reduction of a dye to a coloured formazan, in cell work by metabolically active cells.)
`Cc1cc(Nc2nc(NCc3ccc(F)cc3F)nc3c2cnn3C2CCNCC2)n[nH]1` showed a concentration for half-maximal inhibition (IC50) of 650 nM.
As for `Cc1cc(Nc2nc(NCc3ccc(F)cc3F)nc3c2cnn3C2CCN(C(=O)C3CN(c4ccc5c(c4)C(=O)N(C4CCC(=O)NC4=O)C5=O)C3)CC2)n[nH]1` (centres undefined), the IC50 amounted to 250 nM.

Another data set deals with T1, Protein cereblon/Serine/threonine-protein kinase PLK4. Description: Protac activity at CRBN/PLK4 in human MCF7 cells at 10 uM incubated for 48 hrs by Western blot analysis. It counts as cell-based.
Settings: not given
As to `Cc1cc(Nc2nc(NCc3ccc(F)cc3F)nc3c2cnn3C2CCN(CC3CCN(c4ccc5c(c4)C(=O)N(C4CCC(=O)NC4=O)C5=O)CC3)CC2)n[nH]1` (centres undefined), the Activity worked out at 19.2%.
The same measure, in the same setting: the same measure for `Cc1cc(Nc2nc(NCc3ccc(F)cc3F)nc3c2cnn3C2CCN(CC3CCN(c4ccc5c(c4)C(=O)N(C4CCC(=O)NC4=O)C5=O)C3)CC2)n[nH]1` (centres undefined): 26.1%; for `Cc1cc(Nc2nc(NCc3ccc(F)cc3F)nc3c2cnn3C2CCN(C(=O)C3CN(c4ccc5c(c4)C(=O)N(C4CCC(=O)NC4=O)C5=O)C3)CC2)n[nH]1` (centres undefined): 73.5%; for `Cc1cc(Nc2nc(NCc3ccc(F)cc3F)nc3c2cnn3C2CCN(C(=O)CCOCCOCCCOc3ccc4c(c3)C(=O)N(C3CCC(=O)NC3=O)C4=O)CC2)n[nH]1` (centres undefined): 52.2%.
Compound `Cc1cc(Nc2nc(NCc3ccc(F)cc3F)nc3c2cnn3C2CCN(C(=O)CCOCCOc3ccc4c(c3)C(=O)N(C3CCC(=O)NC3=O)C4=O)CC2)n[nH]1` (centres undefined) registered an Activity of 19.7%.
Still for that read-out and setting: then `Cc1cc(Nc2nc(NCc3ccc(F)cc3F)nc3c2cnn3C2CCN(C(=O)COCCOc3ccc4c(c3)C(=O)N(C3CCC(=O)NC3=O)C4=O)CC2)n[nH]1` (centres undefined), with 28.3%.

Another data set shares this target. Description: Protac activity at CRBN/PLK4 in human MCF7 cells at 10 uM by Western blot analysis. Type of data set: cell-based.
Settings: not given
On to `Cc1cc(Nc2nc(NCc3ccc(F)cc3F)nc3c2cnn3C2CCN(C(=O)C3CCN(c4ccc5c(c4)C(=O)N(C4CCC(=O)N(C)C4=O)C5=O)CC3)CC2)n[nH]1` (centres undefined), for which the result was inactive.
